In ChEMBL document CHEMBL4507274 (2021):

What was measured:
[1] = target: Serine/threonine-protein kinase BRSK2 (Homo sapiens) (UniProt Q8IWQ3); conditions: Compound concentration 100.0 nM
[2] = target: Beta-2 adrenergic receptor (Homo sapiens) (UniProt P07550); conditions: Compound concentration 10.0 uM
[3] = target: BDNF/NT-3 growth factors receptor (Homo sapiens) (UniProt Q16620); conditions: Compound concentration 100.0 nM
[4] = tested on: Proto-oncogene tyrosine-protein kinase receptor Ret (Homo sapiens), P07949 [V804M]; conditions: Compound concentration 100.0 nM
[5] = target: D(1B) dopamine receptor (Homo sapiens) (UniProt P21918); conditions: Compound concentration 10.0 uM
[6] = target: Cyclin-dependent kinase 16 (Homo sapiens) (UniProt Q00536); conditions: Compound concentration 100.0 nM
Cyclin-dependent kinase 16 (Homo sapiens), sequence (Q00536 whole entry): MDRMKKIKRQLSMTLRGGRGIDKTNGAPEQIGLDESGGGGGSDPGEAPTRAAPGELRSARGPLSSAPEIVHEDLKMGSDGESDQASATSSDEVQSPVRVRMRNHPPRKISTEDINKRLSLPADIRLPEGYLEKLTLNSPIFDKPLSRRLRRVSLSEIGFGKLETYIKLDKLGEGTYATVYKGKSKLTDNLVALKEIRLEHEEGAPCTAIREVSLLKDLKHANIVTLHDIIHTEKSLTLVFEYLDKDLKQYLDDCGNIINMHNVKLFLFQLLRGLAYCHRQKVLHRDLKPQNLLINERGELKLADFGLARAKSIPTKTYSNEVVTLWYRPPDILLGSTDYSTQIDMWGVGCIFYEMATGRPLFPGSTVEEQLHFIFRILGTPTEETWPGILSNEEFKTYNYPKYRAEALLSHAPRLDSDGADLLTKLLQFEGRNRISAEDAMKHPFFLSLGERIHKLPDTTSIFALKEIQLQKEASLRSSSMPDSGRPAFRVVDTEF

[7] = target: Serine/threonine-protein kinase ICK (Homo sapiens) (UniProt Q9UPZ9); conditions: Compound concentration 100.0 nM
[8] = target: Ephrin type-A receptor 2 (Homo sapiens) (UniProt P29317); conditions: Compound concentration 100.0 nM
[9] = target: Mitogen-activated protein kinase kinase kinase kinase 2 (Homo sapiens) (UniProt Q12851); conditions: Compound concentration 100.0 nM
Mitogen-activated protein kinase kinase kinase kinase 2 (Homo sapiens), sequence (Q12851 whole entry): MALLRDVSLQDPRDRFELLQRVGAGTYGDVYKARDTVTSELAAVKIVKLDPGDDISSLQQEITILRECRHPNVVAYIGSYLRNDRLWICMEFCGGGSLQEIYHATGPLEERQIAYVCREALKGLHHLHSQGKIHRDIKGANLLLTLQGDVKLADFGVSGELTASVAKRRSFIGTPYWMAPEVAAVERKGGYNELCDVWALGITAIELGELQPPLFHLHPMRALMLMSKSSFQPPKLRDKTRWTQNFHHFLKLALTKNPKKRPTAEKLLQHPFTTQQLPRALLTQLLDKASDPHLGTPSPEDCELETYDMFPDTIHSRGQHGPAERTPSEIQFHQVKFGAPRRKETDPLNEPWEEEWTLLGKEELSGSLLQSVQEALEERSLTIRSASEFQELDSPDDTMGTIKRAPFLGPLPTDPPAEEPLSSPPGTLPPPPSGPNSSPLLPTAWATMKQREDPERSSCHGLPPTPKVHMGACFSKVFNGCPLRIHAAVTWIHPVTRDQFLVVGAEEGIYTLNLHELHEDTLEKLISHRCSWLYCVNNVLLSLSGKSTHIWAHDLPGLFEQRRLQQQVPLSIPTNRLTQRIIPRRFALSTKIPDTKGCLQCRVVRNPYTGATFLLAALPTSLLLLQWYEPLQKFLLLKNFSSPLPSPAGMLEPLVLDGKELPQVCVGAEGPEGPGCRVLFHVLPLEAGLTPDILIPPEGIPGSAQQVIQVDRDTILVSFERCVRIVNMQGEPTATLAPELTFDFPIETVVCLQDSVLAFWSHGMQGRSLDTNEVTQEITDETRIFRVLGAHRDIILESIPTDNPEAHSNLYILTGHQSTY

[10] = target: Receptor-type tyrosine-protein kinase FLT3 (Homo sapiens) (UniProt P36888); conditions: Compound concentration 100.0 nM
[11] = tested on: Receptor-type tyrosine-protein kinase FLT3 (Homo sapiens), P36888 [D835Y]; conditions: Compound concentration 100.0 nM
[12] = target: Cyclin-dependent kinase 2 (Homo sapiens) (UniProt P24941); conditions: Compound concentration 100.0 nM
[13] = target: Dual specificity mitogen-activated protein kinase kinase 5 (Homo sapiens) (UniProt Q13163); conditions: Compound concentration 100.0 nM
[14] = target: Dual specificity protein kinase CLK3 (Homo sapiens) (UniProt P49761); conditions: Compound concentration 100.0 nM
[15] = target: Cyclin-dependent kinase-like 5 (Homo sapiens) (UniProt O76039); conditions: Compound concentration 100.0 nM
[16] = target: Ephrin type-A receptor 5 (Homo sapiens) (UniProt P54756); conditions: Compound concentration 100.0 nM
[17] = target: Serine/threonine-protein kinase 25 (Homo sapiens) (UniProt O00506); conditions: Compound concentration 100.0 nM
[18] = target: Myosin-IIIb (Homo sapiens) (UniProt Q8WXR4); conditions: Compound concentration 100.0 nM
[19] = target: T1, Cytoplasmic tyrosine-protein kinase BMX (Homo sapiens) (UniProt P51813); conditions: Compound concentration 100.0 nM
T1 sequence (whole entry): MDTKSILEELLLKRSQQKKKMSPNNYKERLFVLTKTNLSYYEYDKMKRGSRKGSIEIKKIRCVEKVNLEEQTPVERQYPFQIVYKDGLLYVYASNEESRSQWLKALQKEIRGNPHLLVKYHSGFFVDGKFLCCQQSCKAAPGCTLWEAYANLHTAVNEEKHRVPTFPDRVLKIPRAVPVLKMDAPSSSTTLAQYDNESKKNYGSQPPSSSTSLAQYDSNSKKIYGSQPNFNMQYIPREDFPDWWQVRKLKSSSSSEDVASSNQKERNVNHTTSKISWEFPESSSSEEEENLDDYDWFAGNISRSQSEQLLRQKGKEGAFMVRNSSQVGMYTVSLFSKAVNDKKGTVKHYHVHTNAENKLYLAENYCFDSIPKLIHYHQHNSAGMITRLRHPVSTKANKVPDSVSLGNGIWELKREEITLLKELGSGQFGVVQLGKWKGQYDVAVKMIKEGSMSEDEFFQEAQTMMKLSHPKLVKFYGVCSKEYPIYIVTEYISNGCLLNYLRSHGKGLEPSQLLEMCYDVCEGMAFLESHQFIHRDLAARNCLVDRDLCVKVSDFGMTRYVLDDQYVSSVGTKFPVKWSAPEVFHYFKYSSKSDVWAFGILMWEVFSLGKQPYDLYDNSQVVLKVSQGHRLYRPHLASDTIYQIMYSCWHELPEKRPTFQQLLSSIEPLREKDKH

[20] = target: Cyclin-dependent kinase-like 3 (Homo sapiens) (UniProt Q8IVW4); conditions: Compound concentration 100.0 nM
[21] = target: Serine/threonine-protein kinase MRCK beta (Homo sapiens) (UniProt Q9Y5S2); conditions: Compound concentration 100.0 nM
Serine/threonine-protein kinase MRCK beta (Homo sapiens), sequence (Q9Y5S2 whole entry): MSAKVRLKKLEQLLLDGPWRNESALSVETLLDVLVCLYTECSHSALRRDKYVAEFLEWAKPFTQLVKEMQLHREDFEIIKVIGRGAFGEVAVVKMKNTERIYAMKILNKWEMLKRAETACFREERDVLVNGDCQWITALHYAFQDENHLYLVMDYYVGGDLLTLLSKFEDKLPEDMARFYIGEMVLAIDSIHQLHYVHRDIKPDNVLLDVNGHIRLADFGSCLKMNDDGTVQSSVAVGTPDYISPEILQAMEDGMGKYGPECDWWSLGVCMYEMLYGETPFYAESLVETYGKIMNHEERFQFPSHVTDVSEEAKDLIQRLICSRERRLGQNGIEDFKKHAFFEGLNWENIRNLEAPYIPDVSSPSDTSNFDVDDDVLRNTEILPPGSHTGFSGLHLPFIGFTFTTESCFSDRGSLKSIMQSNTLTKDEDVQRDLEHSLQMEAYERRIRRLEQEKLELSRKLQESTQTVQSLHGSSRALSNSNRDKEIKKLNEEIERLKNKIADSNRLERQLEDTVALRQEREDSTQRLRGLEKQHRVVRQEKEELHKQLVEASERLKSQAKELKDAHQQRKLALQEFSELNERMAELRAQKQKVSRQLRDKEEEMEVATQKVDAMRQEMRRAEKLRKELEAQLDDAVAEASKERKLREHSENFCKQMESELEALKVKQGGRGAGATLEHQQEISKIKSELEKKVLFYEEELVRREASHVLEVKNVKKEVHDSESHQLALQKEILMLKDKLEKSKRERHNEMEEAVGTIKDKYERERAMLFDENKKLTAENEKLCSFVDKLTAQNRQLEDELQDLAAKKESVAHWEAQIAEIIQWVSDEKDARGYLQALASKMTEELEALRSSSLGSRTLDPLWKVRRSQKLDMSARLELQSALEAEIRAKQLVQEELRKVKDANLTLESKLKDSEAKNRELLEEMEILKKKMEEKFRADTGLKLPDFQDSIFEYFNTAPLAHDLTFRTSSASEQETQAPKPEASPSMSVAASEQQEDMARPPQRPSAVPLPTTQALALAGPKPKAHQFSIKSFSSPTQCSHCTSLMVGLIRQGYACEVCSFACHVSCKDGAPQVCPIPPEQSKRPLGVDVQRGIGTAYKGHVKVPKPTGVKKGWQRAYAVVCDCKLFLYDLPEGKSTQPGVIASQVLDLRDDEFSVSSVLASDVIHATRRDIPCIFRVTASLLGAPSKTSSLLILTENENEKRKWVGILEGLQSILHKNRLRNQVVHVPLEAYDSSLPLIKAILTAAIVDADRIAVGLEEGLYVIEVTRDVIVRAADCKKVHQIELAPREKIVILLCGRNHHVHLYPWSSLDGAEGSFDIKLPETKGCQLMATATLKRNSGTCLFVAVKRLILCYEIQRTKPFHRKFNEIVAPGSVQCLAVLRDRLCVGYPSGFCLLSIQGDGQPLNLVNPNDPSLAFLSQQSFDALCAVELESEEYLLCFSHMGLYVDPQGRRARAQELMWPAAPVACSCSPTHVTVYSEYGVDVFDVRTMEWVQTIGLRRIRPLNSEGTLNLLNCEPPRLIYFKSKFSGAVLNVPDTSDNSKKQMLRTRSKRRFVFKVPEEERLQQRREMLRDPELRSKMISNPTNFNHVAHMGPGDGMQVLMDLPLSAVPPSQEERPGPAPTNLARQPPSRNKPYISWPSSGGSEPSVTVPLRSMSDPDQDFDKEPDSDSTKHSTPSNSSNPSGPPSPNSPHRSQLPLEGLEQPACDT

[22] = target: Serine/threonine-protein kinase Nek1 (Homo sapiens) (UniProt Q96PY6); conditions: Compound concentration 100.0 nM
[23] = target: Death-associated protein kinase 3 (Homo sapiens) (UniProt O43293); conditions: Compound concentration 100.0 nM
[24] = target: Ankyrin repeat and protein kinase domain-containing protein 1 (Homo sapiens) (UniProt Q8NFD2); conditions: Compound concentration 100.0 nM
[25] = target: Receptor-interacting serine/threonine-protein kinase 1 (Homo sapiens) (UniProt Q13546); conditions: Compound concentration 100.0 nM
[26] = target: Macrophage colony-stimulating factor 1 receptor (Homo sapiens) (UniProt P07333); conditions: Compound concentration 100.0 nM
Macrophage colony-stimulating factor 1 receptor (Homo sapiens), sequence (P07333 whole entry): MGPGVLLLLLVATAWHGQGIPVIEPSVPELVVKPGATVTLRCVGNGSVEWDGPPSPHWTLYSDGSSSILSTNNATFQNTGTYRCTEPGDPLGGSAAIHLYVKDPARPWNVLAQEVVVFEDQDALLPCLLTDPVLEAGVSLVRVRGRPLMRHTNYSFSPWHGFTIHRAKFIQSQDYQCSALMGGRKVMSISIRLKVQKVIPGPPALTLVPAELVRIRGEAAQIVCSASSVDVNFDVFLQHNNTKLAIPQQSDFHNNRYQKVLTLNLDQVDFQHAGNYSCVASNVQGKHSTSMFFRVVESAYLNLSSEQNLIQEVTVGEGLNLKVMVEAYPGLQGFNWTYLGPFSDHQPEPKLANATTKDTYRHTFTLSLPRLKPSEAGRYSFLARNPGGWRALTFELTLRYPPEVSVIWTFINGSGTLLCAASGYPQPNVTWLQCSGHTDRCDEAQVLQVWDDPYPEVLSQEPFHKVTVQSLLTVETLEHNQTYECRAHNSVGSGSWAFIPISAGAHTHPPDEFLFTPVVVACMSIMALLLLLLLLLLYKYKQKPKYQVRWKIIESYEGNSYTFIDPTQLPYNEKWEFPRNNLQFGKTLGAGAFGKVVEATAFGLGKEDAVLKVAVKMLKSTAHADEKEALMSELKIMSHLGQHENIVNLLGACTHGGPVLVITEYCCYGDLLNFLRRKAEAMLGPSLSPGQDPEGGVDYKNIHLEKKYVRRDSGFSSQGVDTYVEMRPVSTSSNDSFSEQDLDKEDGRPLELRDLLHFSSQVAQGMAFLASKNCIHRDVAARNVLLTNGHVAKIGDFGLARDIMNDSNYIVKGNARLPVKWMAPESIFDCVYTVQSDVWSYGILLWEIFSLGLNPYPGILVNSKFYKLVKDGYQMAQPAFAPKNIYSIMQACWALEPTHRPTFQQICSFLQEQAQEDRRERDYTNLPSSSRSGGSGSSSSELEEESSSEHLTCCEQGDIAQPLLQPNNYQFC

[27] = target: Atypical kinase COQ8A, mitochondrial (Homo sapiens) (UniProt Q8NI60); conditions: Compound concentration 100.0 nM
Atypical kinase COQ8A, mitochondrial (Homo sapiens), sequence (Q8NI60 163-647 limits assumed): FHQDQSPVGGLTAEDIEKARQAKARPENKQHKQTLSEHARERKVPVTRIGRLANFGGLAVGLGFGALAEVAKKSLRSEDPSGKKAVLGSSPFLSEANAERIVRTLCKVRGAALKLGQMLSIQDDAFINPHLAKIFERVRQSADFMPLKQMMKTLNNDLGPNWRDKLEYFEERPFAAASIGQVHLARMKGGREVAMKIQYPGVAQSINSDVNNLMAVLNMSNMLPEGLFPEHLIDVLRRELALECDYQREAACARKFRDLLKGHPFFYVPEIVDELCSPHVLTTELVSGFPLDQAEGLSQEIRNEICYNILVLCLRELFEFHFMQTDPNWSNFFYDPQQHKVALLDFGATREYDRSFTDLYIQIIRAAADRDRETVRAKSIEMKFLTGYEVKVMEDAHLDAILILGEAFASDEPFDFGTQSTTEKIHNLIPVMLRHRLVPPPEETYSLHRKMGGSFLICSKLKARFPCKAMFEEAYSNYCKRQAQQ

[28] = tested on: Receptor-type tyrosine-protein kinase FLT3 (Homo sapiens), P36888 [UNDEFINED MUTATION]; conditions: Compound concentration 100.0 nM
[29] = target: Calcium/calmodulin-dependent protein kinase kinase 1 (Homo sapiens) (UniProt Q8N5S9); conditions: Compound concentration 100.0 nM
Calcium/calmodulin-dependent protein kinase kinase 1 (Homo sapiens), sequence (Q8N5S9 whole entry, looked up): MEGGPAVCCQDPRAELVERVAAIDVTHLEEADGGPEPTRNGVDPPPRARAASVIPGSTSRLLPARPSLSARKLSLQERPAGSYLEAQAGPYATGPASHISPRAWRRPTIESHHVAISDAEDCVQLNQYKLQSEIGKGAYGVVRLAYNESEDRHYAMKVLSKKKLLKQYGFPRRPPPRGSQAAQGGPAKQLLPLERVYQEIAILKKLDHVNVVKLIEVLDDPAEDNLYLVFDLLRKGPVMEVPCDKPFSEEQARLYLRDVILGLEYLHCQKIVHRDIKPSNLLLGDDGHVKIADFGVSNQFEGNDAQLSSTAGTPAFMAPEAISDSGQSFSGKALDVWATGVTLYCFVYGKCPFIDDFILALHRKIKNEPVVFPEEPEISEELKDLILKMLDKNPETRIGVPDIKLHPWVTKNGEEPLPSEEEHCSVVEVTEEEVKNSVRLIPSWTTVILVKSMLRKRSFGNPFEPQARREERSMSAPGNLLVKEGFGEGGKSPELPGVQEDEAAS

Cc1c[nH]c2nccc(Oc3c(F)cc(Nc4cc(Cl)nc(N)n4)cc3F)c12 [BAY-549]
inactive: residual activity [1] 92% | inhibition [2] -7.12% | residual activity [3] 94% | residual activity [4] 100% | inhibition [5] 21.9% | residual activity [6] 99% | residual activity [7] 79% | residual activity [8] 100% | residual activity [9] 69% | residual activity [10] 76% | residual activity [11] 63% | residual activity [12] 99% | residual activity [13] 82% | residual activity [14] 91% | residual activity [15] 73% | residual activity [16] 92% | residual activity [17] 100% | residual activity [18] 91% | residual activity [19] 100% | residual activity [20] 100% | residual activity [21] 70% | residual activity [22] 96% | residual activity [23] 97% | residual activity [24] 85% | residual activity [25] 100% | residual activity [26] 100% | residual activity [27] 100% | residual activity [28] 54% | residual activity [29] 99%

Cn1cc(Cl)c2c(Oc3c(F)cc(Nc4cc(Cl)nc(N)n4)cc3F)ccnc21 [BAY-4900]
inactive: residual activity [1] 100% | inhibition [2] 10.2% | residual activity [3] 96% | residual activity [4] 95% | inhibition [5] 9.8% | residual activity [6] 100% | residual activity [7] 100% | residual activity [8] 100% | residual activity [9] 81% | residual activity [10] 100% | residual activity [11] 99% | residual activity [12] 100% | residual activity [13] 100% | residual activity [14] 91% | residual activity [15] 78% | residual activity [16] 100% | residual activity [17] 100% | residual activity [18] 57% | residual activity [19] 97% | residual activity [20] 96% | residual activity [21] 100% | residual activity [22] 100% | residual activity [23] 100% | residual activity [24] 83% | residual activity [25] 100% | residual activity [26] 89% | residual activity [27] 100% | residual activity [28] 61% | residual activity [29] 100%
